Measured values from patent publication US20100311677A1, “Active Ingredient Combinations Having Insecticidal and Acaricidal Properties” (Bayer CropScience AG, priority 2007, published 2010).
Read-outs that look alike come from different tables or passages of the source.

Experiments:
Myzus persicae = Myzus persicae test (Example C), sprayed cabbage leaves; assay type: in vivo; details: for pest or weed control at 0.16 g/ha / pest or weed control at 0.8 g/ha / pest or weed control at 0.032 g/ha / pest or weed control at 4 g/ha: Myzus persicae, 144 h, read-out: Kill in % after 6d
Phaedon cochleariae = Phaedon cochleariae larvae test (Example E), sprayed cabbage leaves; details: for Kill in % after 2d: alone
Tetranychus urticae = Tetranychus urticae test (OP-resistant/spray treatment) (Example G), bean leaf disks; assay type: in vivo; details: for pest or weed control at 20 g/ha / pest or weed control at 4 g/ha / pest or weed control at 0.8 g/ha / Kill in % after 6d: active compound alone, after 6 d; for Kill in % after 2d: alone
Protocol: Tetranychus urticae Test (OP-Resistant/Spray Treatment)
After the desired period of time, the activity in % is determined.

Spodoptera frugiperda = Spodoptera frugiperda larvae test (Example F), sprayed cabbage leaves; assay type: in vivo; details: Spodoptera frugiperda, 144 h, read-out: Kill in % after 6d
Text: Spodoptera frugiperda Larvae Test

[1] = Phaedon cochleariae, in Brassica oleracea, 144 h, read-out: Kill in % after 6d
[2] = Tetranychus urticae, foliar, 144 h, 20 g/ha, read-out: Kill in % after 6 d
[3] = Tetranychus urticae, foliar, 144 h, 4 g/ha, read-out: Kill in % after 6 d
[4] = Tetranychus urticae, foliar, 144 h, 0.8 g/ha, read-out: Kill in % after 6 d

## CNC(=O)c1cc(C#N)cc(C)c1NC(=O)c1cc(Br)nn1-c1ncccc1Cl [Cyazypyr (57), Cyazypyr]
Myzus persicae; 4 g/ha, alone
  Kill in % after 1d: 5%
Phaedon cochleariae; [1]
  pest or weed control at 0.16 g/ha: 0%

## CC(c1ccc(C(F)(F)F)nc1)S(C)(=O)=NC#N (stereo not shown) [II-29-29]
Tetranychus urticae; [2]
  pest or weed control at 20 g/ha: 0%

## CNC(=O)c1cc(Cl)cc(C)c1NC(=O)c1cc(Br)nn1-c1ncccc1Cl [Rynaxapyr (56), chlorantraniliprole]
Myzus persicae; 0.16 g/ha, alone, after 6 d
  pest or weed control at 0.16 g/ha: 0%
Tetranychus urticae; [3]
  pest or weed control at 4 g/ha: 0%

## COP(=O)(NC(C)=O)SC (stereo not shown) [acephate (112), acephate]
Myzus persicae
  pest or weed control at 0.8 g/ha: 0%
Spodoptera frugiperda
  pest or weed control at 20 g/ha: 33%
Tetranychus urticae; Tetranychus urticae, foliar, 144 h, read-out: Kill in % after 6 d
  pest or weed control at 100 g/ha: 0%

## C/C(=N\C#N)N(C)Cc1ccc(Cl)nc1 [acetamiprid (25), acetamiprid]
Myzus persicae; 0.16 g/ha, alone, after 6 d
  pest or weed control at 0.16 g/ha: 0%
Tetranychus urticae; [4]
  pest or weed control at 0.8 g/ha: 0%
Phaedon cochleariae; [1]
  pest or weed control at 0.8 g/ha: 0%

## CNC(=O)O/N=C/C(C)(C)SC [aldicarb (108), aldicarb]
Myzus persicae; 4 g/ha, alone
  Kill in % after 1d: 30%

## Cc1ccc(/N=C/N(C)/C=N/c2ccc(C)cc2C)c(C)c1 [amitraz (86), amitraz]
Myzus persicae; 0.8 g/ha, alone, after 6 d
  pest or weed control at 0.8 g/ha: 0%
Tetranychus urticae; 4 g/ha
  Kill in % after 2d: 0%
Phaedon cochleariae; [1]
  pest or weed control at 100 g/ha: 0%

## CC1(C)C(C=C(Cl)Cl)C1C(=O)OC(C#N)c1ccc(F)c(Oc2ccccc2)c1 (stereo not drawn) [beta-cyfluthrin (3), betacyfluthrin]
Myzus persicae; 0.16 g/ha, alone, after 6 d
  pest or weed control at 0.16 g/ha: 0%
Tetranychus urticae; [4]
  pest or weed control at 0.8 g/ha: 0%
Phaedon cochleariae; [1]
  pest or weed control at 0.8 g/ha: 17%

## Cc1c(COC(=O)C2C(/C=C(\Cl)C(F)(F)F)C2(C)C)cccc1-c1ccccc1 (stereo not shown) [bifenthrin (18), bifenthrin]
Spodoptera frugiperda; 0.8 g/ha, alone, after 6 d
  pest or weed control at 0.8 g/ha: 0%

## CCOCn1c(-c2ccc(Cl)cc2)c(C#N)c(Br)c1C(F)(F)F [chlorfenapyr (92), chlorfenapyr]
Myzus persicae; 0.8 g/ha, alone, after 6 d
  pest or weed control at 0.8 g/ha: 0%
Tetranychus urticae; [3]
  pest or weed control at 4 g/ha: 70%

## CN/C(=N\[N+](=O)[O-])NCc1cnc(Cl)s1 [clothianidin (30), clothianidin]
Myzus persicae; alone, after 6 d
  pest or weed control at 0.032 g/ha: 0%
Tetranychus urticae; [4]
  pest or weed control at 0.8 g/ha: 0%

## CN(Cc1ccc(Cl)nc1)C1=CC(=O)OC1 [compound (100)]
Myzus persicae; 0.16 g/ha, alone, after 6 d
  pest or weed control at 0.16 g/ha: 0%

## O=C1C=C(N(Cc2ccc(Cl)nc2)CC(F)F)CO1 [compound (101)]
Myzus persicae; 0.8 g/ha, alone, after 6 d
  pest or weed control at 0.8 g/ha: 50%
Tetranychus urticae; [2]
  pest or weed control at 20 g/ha: 0%

## Cc1cc(C)c(-n2cnc(C(F)(F)F)n2)cc1SOCC(F)(F)F [compound (106)]
Myzus persicae; 4 g/ha, alone, after 6 d
  pest or weed control at 4 g/ha: 0%

## Cc1nn(C)c(/C(OC(=O)C(C)(C)C)=C(\C#N)c2ccc(C(C)(C)C)cc2)c1C [cyenopyrafen (71), (1E)-2-cyano-2-[4-(1,1-dimethylethyl)phenyl]-1-(1,3,4-trimethyl-1H-pyrazol-5-yl)ethenyl 2,2-dimethylpropanoate]
Myzus persicae; 0.8 g/ha, alone, after 6 d
  pest or weed control at 0.8 g/ha: 0%

## COCCOC(=O)C(C#N)(C(=O)c1ccccc1C(F)(F)F)c1ccc(C(C)(C)C)cc1 (stereo not drawn) [cyflumetofen (72), 2-methoxyethyl alpha-cyano-alpha-[4-(1,1-dimethylethyl)phenyl]-beta-oxo-2-(trifluoromethyl)benzenepropanoate]
Myzus persicae; 4 g/ha, alone, after 6 d
  pest or weed control at 4 g/ha: 0%
Tetranychus urticae; [3]
  pest or weed control at 4 g/ha: 80%

## Nc1nc(N)nc(NC2CC2)n1 [cyromazine (43), cyromazine]
Myzus persicae; 0.8 g/ha, alone, after 6 d
  pest or weed control at 0.8 g/ha: 0%
Tetranychus urticae; [2]
  pest or weed control at 20 g/ha: 0%
Phaedon cochleariae; [1]
  pest or weed control at 100 g/ha: 0%

## CC1(C)C(C=C(Br)Br)C1C(=O)OC(C#N)c1cccc(Oc2ccccc2)c1 (stereo not shown) [deltamethrin (6), deltamethrin]
Myzus persicae; 0.16 g/ha, alone
  Kill in % after 1d: 40%
Tetranychus urticae; [4]
  pest or weed control at 0.8 g/ha: 0%
Phaedon cochleariae; [1]
  pest or weed control at 0.8 g/ha: 50%

## CC(C)c1cc(Oc2ccccc2)cc(C(C)C)c1NC(=S)NC(C)(C)C [diafenthiuron (76), diafenthiuron]
Myzus persicae; 0.8 g/ha, alone, after 6 d
  pest or weed control at 0.8 g/ha: 0%
Tetranychus urticae; [4]
  pest or weed control at 0.8 g/ha: 30%
Phaedon cochleariae; [1]
  pest or weed control at 20 g/ha: 0%

## CN/C(=N/CC1CCOC1)N[N+](=O)[O-] (stereo not shown) [dinotefuran (29)]
Tetranychus urticae; 4 g/ha
  Kill in % after 6d: 0%

## O=S1OCC2C(CO1)C1(Cl)C(Cl)=C(Cl)C2(Cl)C1(Cl)Cl (stereo not shown) [endosulfan (49), endosulfan]
Myzus persicae; 4 g/ha, alone, after 6 d
  pest or weed control at 4 g/ha: 0%
Tetranychus urticae; 100 g/ha
  Kill in % after 2d: 0%
Phaedon cochleariae; [1]
  pest or weed control at 20 g/ha: 33%

## CC(C)C(C(=O)OC(C#N)c1cccc(Oc2ccccc2)c1)c1ccc(Cl)cc1 (stereo not shown) [esfenvalerate (7), esfenvalerate]
Myzus persicae; 0.16 g/ha, alone
  Kill in % after 1d: 0%
Tetranychus urticae; [4]
  pest or weed control at 0.8 g/ha: 0%
Phaedon cochleariae; [1]
  pest or weed control at 4 g/ha: 83%

## CC[S+]([O-])c1c(C#N)nn(-c2c(Cl)cc(C(F)(F)F)cc2Cl)c1N (stereo not shown) [ethiprole (51)]
Tetranychus urticae; 100 g/ha
  Kill in % after 6d: 0%

## Cc1nn(C)c(Oc2ccccc2)c1C=NOCc1ccc(C(=O)OC(C)(C)C)cc1 [fenpyroximate (65), fenpyroximate]
Myzus persicae; 0.8 g/ha, alone, after 6 d
  pest or weed control at 0.8 g/ha: 0%
Tetranychus urticae; 0.8 g/ha
  Kill in % after 2d: 10%

## N#Cc1nn(-c2c(Cl)cc(C(F)(F)F)cc2Cl)c(N)c1[S+]([O-])C(F)(F)F (stereo not shown) [fipronil (50), fipronil]
Myzus persicae; 4 g/ha, alone, after 6 d
  pest or weed control at 4 g/ha: 0%

## N#CCNC(=O)c1cnccc1C(F)(F)F [flonicamid (89), flonicamid]
Tetranychus urticae; 100 g/ha
  Kill in % after 2d: 0%

## O=C(NC(=O)c1c(F)cccc1F)Nc1ccc(Oc2ccc(C(F)(F)F)cc2Cl)cc1F [flufenoxuron (38), flufenoxuron]
Tetranychus urticae; [2]
  pest or weed control at 20 g/ha: 0%
Phaedon cochleariae; [1]
  pest or weed control at 4 g/ha: 0%

## O=[N+]([O-])/N=C1\NCCN1Cc1ccc(Cl)nc1 [imidacloprid (24), imidacloprid]
Myzus persicae; alone, after 6 d
  pest or weed control at 0.032 g/ha: 0%
Tetranychus urticae; [4]
  pest or weed control at 0.8 g/ha: 0%

## CNC(=O)Oc1cc(C)c(SC)c(C)c1 [methiocarb (110), methiocarb]
Phaedon cochleariae; [1]
  pest or weed control at 4 g/ha: 0%

## COc1cccc(C(=O)NN(C(=O)c2cc(C)cc(C)c2)C(C)(C)C)c1C [methoxyfenozide (44), methoxyfenozide]
Myzus persicae; 0.8 g/ha, alone, after 6 d
  pest or weed control at 0.8 g/ha: 0%
Tetranychus urticae; [2]
  pest or weed control at 20 g/ha: 0%

## O=C(NC(=O)c1c(F)cccc1F)Nc1ccc(OC(F)(F)C(F)OC(F)(F)F)c(Cl)c1 (stereo not shown) [novaluron (37), novaluron]
Phaedon cochleariae; [1]
  pest or weed control at 4 g/ha: 83%

## CC1=NNC(=O)N(/N=C/c2cccnc2)C1 [pymetrozine (88), pymetrozine]
Myzus persicae; 20 g/ha, alone
  Kill in % after 1d: 20%
Tetranychus urticae; [2]
  pest or weed control at 20 g/ha: 0%
Phaedon cochleariae; [1]
  pest or weed control at 100 g/ha: 0%

## FC(F)(F)c1ccc(OCCCOc2c(Cl)cc(OCC=C(Cl)Cl)cc2Cl)nc1 [pyridalyl (99)]
Tetranychus urticae; 20 g/ha
  Kill in % after 6d: 0%

## CC(COc1ccc(Oc2ccccc2)cc1)Oc1ccccn1 (stereo not shown) [pyriproxifen (90), pyriproxyfen]
Myzus persicae; 0.8 g/ha, alone, after 6 d
  pest or weed control at 0.8 g/ha: 0%
Tetranychus urticae; [2]
  pest or weed control at 20 g/ha: 0%
Phaedon cochleariae; [1]
  pest or weed control at 100 g/ha: 0%

## CCC(C)(C)C(=O)OC1=C(c2ccc(Cl)cc2Cl)C(=O)OC12CCCCC2 [spirodiclofen (96), spirodiclofen]
Myzus persicae; 0.8 g/ha, alone, after 6 d
  pest or weed control at 0.8 g/ha: 0%
Phaedon cochleariae; [1]
  pest or weed control at 100 g/ha: 0%

## Cc1cc(C)c(C2=C(OC(=O)CC(C)(C)C)C3(CCCC3)OC2=O)c(C)c1 [spiromesifen (97), spiromesifen]
Myzus persicae; 0.8 g/ha, alone, after 6 d
  pest or weed control at 0.8 g/ha: 0%

## CCc1nn(C)c(C(=O)NCc2ccc(C(C)(C)C)cc2)c1Cl [tebufenpyrad (64), tebufenpyrad]
Myzus persicae; 0.8 g/ha, alone, after 6 d
  pest or weed control at 0.8 g/ha: 0%

## N#C/N=C1\SCCN1Cc1ccc(Cl)nc1 [thiacloprid (28), thiacloprid]
Myzus persicae; alone, after 6 d
  pest or weed control at 0.032 g/ha: 0%
Tetranychus urticae; [4]
  pest or weed control at 0.8 g/ha: 0%
Phaedon cochleariae; 4 g/ha
  Kill in % after 2d: 0%

## CN1COCN(Cc2cnc(Cl)s2)/C1=N/[N+](=O)[O-] [thiamethoxam (26), thiamethoxam]
Myzus persicae; alone, after 6 d
  pest or weed control at 0.032 g/ha: 0%

## abamectin [abamectin (60)]
Myzus persicae; 20 g/ha, alone
  Kill in % after 1d: 5%

## carbosulfan [carbosulfan (109)]
Myzus persicae; 4 g/ha, alone
  Kill in % after 1d: 0%

## chlorpyrifos [chlorpyrifos (95)]
Myzus persicae; 0.8 g/ha, alone, after 6 d
  Kill in % after 6d: 0%
Tetranychus urticae; 20 g/ha
  Kill in % after 6d: 0%

## profenofos [profenofos (114)]
Myzus persicae; 0.8 g/ha, alone
  Kill in % after 1d: 0%
Tetranychus urticae; 20 g/ha
  Kill in % after 6d: 0%

## pyridaben [pyridaben (66)]
Myzus persicae; 0.8 g/ha, alone, after 6 d
  Kill in % after 6d: 0%
Phaedon cochleariae; 20 g/ha
  Kill in % after 2d: 33%
